In assay [1] the target is Disintegrin and metalloproteinase domain-containing protein 17 (Homo sapiens, UniProt P78536). Nature of the assay: Inhibitory activity against TACE.
For the next assay, the target named is T1, Interstitial collagenase (Homo sapiens, UniProt P03956).
T1 sequence (P03956 whole entry): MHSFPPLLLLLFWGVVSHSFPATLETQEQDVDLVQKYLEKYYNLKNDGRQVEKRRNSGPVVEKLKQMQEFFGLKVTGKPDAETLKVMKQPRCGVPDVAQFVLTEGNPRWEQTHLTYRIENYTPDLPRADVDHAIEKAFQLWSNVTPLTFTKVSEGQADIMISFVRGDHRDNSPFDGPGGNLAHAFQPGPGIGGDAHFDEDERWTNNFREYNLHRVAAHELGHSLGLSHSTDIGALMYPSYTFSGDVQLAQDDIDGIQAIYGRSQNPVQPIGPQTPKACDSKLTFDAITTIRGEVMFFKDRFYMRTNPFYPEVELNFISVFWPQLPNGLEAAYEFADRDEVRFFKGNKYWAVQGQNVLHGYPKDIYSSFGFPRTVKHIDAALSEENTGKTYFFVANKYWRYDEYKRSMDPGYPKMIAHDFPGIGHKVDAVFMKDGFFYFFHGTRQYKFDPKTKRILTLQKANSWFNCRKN
Nature of the assay: Inhibitory activity against matrix metalloprotease 1 (MMP-1).

The next assay deals with Collagenase 3 (Homo sapiens, UniProt P45452). Nature of the assay: Inhibitory activity against matrix metalloprotease 13 (MMP-13).
The target of assay [2] is Matrix metalloproteinase-9 (Homo sapiens, UniProt P14780). Nature of the assay: Inhibitory activity against matrix metalloprotease 9 (MMP-9).
Chain of Matrix metalloproteinase-9 (P14780 whole entry): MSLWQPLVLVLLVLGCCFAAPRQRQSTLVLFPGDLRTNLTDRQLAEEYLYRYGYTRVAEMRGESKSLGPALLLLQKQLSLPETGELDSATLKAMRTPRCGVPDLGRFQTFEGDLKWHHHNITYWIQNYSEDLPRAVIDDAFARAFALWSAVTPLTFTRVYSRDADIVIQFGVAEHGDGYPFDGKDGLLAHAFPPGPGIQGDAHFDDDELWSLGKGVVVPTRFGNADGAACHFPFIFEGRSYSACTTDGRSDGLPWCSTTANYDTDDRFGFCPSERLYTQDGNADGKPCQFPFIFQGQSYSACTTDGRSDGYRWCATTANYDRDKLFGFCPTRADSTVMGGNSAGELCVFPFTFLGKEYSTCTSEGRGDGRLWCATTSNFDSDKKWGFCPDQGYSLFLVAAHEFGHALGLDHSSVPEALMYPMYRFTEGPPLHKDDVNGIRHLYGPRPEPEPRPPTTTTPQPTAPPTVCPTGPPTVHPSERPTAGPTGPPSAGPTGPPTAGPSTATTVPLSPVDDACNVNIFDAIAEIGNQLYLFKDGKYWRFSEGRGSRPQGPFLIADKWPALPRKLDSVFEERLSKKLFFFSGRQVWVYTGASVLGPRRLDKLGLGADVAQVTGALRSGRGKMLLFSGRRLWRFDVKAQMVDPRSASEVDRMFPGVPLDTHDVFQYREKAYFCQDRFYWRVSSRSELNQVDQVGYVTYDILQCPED
Another assay concerns Rattus norvegicus. Nature of the assay: In vivo inhibition of cartilage degradation at 50 mpk po bid in the rat sponge-wrapped cartilage implant model. In kind it is functional.
Assay [3] relates to Mus musculus. Nature of the assay: In vivo inhibition of MMP-13 at 25 mpk po 1 hr after dosing in the mouse dialysis tubing implant assay. The class given is functional.
The species named for a further assay is Bos taurus. Nature of the assay: Ex vivo inhibition of cartilage degradation at 100 nM concentration in the bovine articular cartilage explant assay. In kind it is functional. The following applies: Cartilage tissue.
For assay [4], the system named is Mus musculus. Nature of the assay: In vivo inhibition of MMP-13 at 50 mpk po 1 hr after dosing in the mouse dialysis tubing implant assay. In kind it is functional.
The next assay relates to THP-1. Nature of the assay: In vitro inhibition of TNF-alpha release at a concentration of 3 uM by using THP cellular assay. In kind it is functional, cell-based. The following applies: Homo sapiens.

Where only a bound is given, the exact number is not on record here.

Chain of Disintegrin and metalloproteinase domain-containing protein 17 (P78536 whole entry, the tested form may be a part): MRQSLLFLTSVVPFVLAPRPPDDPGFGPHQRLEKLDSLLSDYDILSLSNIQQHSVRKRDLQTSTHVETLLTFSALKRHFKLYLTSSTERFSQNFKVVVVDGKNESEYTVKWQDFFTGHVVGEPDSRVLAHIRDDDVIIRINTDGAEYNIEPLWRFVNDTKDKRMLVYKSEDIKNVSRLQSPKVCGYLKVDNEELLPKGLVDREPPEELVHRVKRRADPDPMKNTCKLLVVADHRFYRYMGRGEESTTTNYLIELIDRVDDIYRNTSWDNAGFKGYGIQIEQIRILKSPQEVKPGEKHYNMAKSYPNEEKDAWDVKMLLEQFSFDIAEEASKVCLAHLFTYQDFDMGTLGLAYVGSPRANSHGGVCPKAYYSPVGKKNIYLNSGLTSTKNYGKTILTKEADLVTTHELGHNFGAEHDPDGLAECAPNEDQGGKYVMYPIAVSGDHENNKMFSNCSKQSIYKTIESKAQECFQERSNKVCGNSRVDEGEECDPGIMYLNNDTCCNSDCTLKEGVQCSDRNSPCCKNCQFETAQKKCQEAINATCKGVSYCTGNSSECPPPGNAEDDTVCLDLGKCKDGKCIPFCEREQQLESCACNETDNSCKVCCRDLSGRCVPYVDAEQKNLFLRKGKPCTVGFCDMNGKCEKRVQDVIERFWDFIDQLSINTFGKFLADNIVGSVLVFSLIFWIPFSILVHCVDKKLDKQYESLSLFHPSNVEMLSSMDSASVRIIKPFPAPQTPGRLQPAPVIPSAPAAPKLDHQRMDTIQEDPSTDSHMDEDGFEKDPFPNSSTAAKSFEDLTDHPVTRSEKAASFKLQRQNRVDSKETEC

The IC50 is the concentration that inhibits the measured activity by half. The molecule `CC#CCOc1ccc(S(=O)(=O)N(C)c2c(C(=O)NO)cnc3onc(C)c23)cc1` came in with an IC50 in assay [1] of 6 nM.
`C=Cc1cccc2c(N(C)S(=O)(=O)c3ccc(OC)cc3)c(C(=O)NO)cnc12`: the half-maximal inhibitory concentration (IC50) at Interstitial collagenase amounted to 200 nM; in assay [1], 205 nM; against Collagenase 3 it was 5 nM; in assay [2], 5 nM.
`CCCCOc1ccc(S(=O)(=O)N(C)c2c(C(=O)NO)cnc3c2c(C)nn3C)cc1`: the IC50 at Interstitial collagenase was found to be 1920 nM; in assay [1], 86 nM; on Collagenase 3 it was 3 nM; in assay [2], 7 nM.
In general, inhibition in vivo refers to the drop in the measured response relative to a control, in per cent. A low value points to little suppression. In general, inhibition refers to the change of the read-out against control, counted positive when it falls. For the molecule `Cc1nn(C)c2ncc(C(=O)NO)c(N(C)S(=O)(=O)c3ccc(Oc4ccncc4)cc3)c12`, the IC50 in [1] is above 100 nM; in [2] it was 2 nM. In the assay on Rattus norvegicus, this molecule displayed an inhibition in vivo at 50 mg/kg of 46%. In the assay with Mus musculus [3], the inhibition in vivo at 25 mg/kg was determined as 54%. This molecule also showed an inhibition at 0.1 µM in the assay filed under Bos taurus of 61%.
`Cc1nn(C)c2ncc(C(=O)NO)c(N(C)S(=O)(=O)c3ccc(F)cc3)c12`: the IC50 against Interstitial collagenase is 177 nM; in assay [1], above 1000 nM; against Collagenase 3, 170 nM; in assay [2] it was 595 nM.
Consider `COc1ccc(S(=O)(=O)N(Cc2cccnc2)c2c(C(=O)NO)cnc3c2cnn3-c2ccccc2)cc1`, for which the values for the IC50 (in assay [1]; at Collagenase 3; in assay [2]) were 435 nM, 20 nM and 6 nM, respectively.
The corresponding values for `COc1ccc(S(=O)(=O)N(Cc2ccccc2)c2c(C(=O)NO)cnc3ccc(C(F)(F)F)cc23)cc1` are above 1000 nM, 7 nM and 11 nM.
In the case of `COc1ccc(S(=O)(=O)N(C)c2c(C(=O)NO)cnc3c(Br)cccc23)cc1`, in assay [1], the IC50 was 296 nM.
Take `CC#CCOc1ccc(S(=O)(=O)N(C)c2c(C(=O)NO)cnc3c(OC)cccc23)cc1`: the IC50 against Collagenase 3 amounted to 9 nM.
Consider `O=C(NO)c1cnc2cc(C(F)(F)F)ccc2c1N(Cc1cccnc1)S(=O)(=O)c1ccc(-c2ccccc2)cc1`, for which the IC50 in assay [1] stood at 124 nM; in assay [2] it was 1160 nM.
Regarding `COc1ccc(S(=O)(=O)N(Cc2cccnc2)c2c(C(=O)NO)cnc3cc(C(F)(F)F)ccc23)cc1`, the IC50 in [1] worked out at 1000 nM; against Collagenase 3, 1 nM; in [2], 4 nM.
On to `COc1ccc(S(=O)(=O)N(Cc2ccccc2)c2c(C(=O)NO)cnc3ccc(Br)cc23)cc1`, for which the IC50 on Interstitial collagenase was 108 nM; in [1], above 1000 nM; against Collagenase 3, 6 nM; in assay [2] it was 8 nM.
As for `CN(c1c(C(=O)NO)cnc2ccccc12)S(=O)(=O)c1ccc(Oc2ccncc2)cc1`, the IC50 at Interstitial collagenase amounted to 1010 nM; in [1], 124 nM; at Collagenase 3 it was 1 nM. In addition, the inhibition in vivo at 50 mg/kg came to 90% in the assay on Mus musculus [4] and 44% in the assay with Rattus norvegicus. This molecule yielded an inhibition at 0.1 µM in the assay filed under Bos taurus of 42%.
Regarding `Cc1nn(C)c2ncc(C(=O)NO)c(N(C)S(=O)(=O)c3ccc(Oc4ccc(Cl)cc4)cc3)c12`, the IC50 on Interstitial collagenase amounted to 116 nM; in assay [1], 356 nM.
For the molecule `CC#CCOc1ccc(S(=O)(=O)N(C)c2c(C(=O)NO)cnc3c(Br)cccc23)cc1`, the inhibition with THP-1 is 32%.
Consider `Cc1ccc(S(=O)(=O)N(Cc2cccnc2)c2c(C(=O)NO)cnc3cc(C(F)(F)F)ccc23)cc1`, for which the IC50 (at Interstitial collagenase; in assay [1]; on Collagenase 3; in [2]) was above 1000 nM throughout.
For the molecule `CC#CCOc1ccc(S(=O)(=O)N(C)c2c(C(=O)NO)cnc3c2c(C)nn3C)cc1`, in [2], the IC50 came out at 100 nM.
Same read-out and setting: next, `COc1ccc(S(=O)(=O)N(Cc2cccnc2)c2c(C(=O)NO)cnc3snc(C)c23)cc1`: 2 nM.
For the molecule `COc1ccc(S(=O)(=O)N(Cc2cccnc2)c2c(C(=O)NO)cnc3c(-c4cccs4)cccc23)cc1`, 136 nM corresponded to half-maximal inhibition against Interstitial collagenase (IC50).
Same read-out and setting: as for `COc1ccc(S(=O)(=O)N(Cc2cccnc2)c2c(C(=O)NO)cnc3c2c(C)nn3-c2ccccc2)cc1`, the figure is 115 nM.
With `COc1ccc(S(=O)(=O)N(Cc2ccccc2)c2c(C(=O)NO)cnc3cc(Br)ccc23)cc1`, the results for the IC50 (in [1]; against Collagenase 3; in assay [2]) were above 1000 nM, 7 nM and 11 nM, respectively.
As to `COc1ccc(S(=O)(=O)N(Cc2cccnc2)c2c(C(=O)NO)cnc3c(I)cccc23)cc1`, the results for the IC50 (in assay [1]; at Collagenase 3; in assay [2]) were 124 nM, 3 nM and 3 nM, respectively.

(Values after ChEMBL document CHEMBL1136711, “Synthesis and SAR of bicyclic heteroaryl hydroxamic acid MMP and TACE inhibitors” (Bioorg Med Chem Lett, 2003).)
